What was measured:
[1] = Non-enzymatic stability under cellular assay conditions (HPLC); assay type: physicochemical; conditions: compound remaining, assay medium DMEM, 37 °C
Experimental: An important aspect in the development of PROTACs is testing chemical stability. On the one hand, we tested all PROTACs produced for their stability under cellular assay conditions. For this purpose, 10 µM solutions of the PROTACs and reference inhibitor were incubated for 72 h at 37 °C with the assay medium DMEM. The remaining amount of the compounds was determined by HPLC after 6, 12, 24, 48 and 72 h. The results of the stability studies are shown in Table S2 (Supplementary Information).
The developed compounds were diluted in the assay media consisting of a mixture of DMEM (50%), DMSO (10%) and acetonitrile (40%) at pH 7.4 and incubated at 37 °C for 72 h. The quantity of the compounds was measured after 6, 12, 24, 48, and 72 h by HPLC using an XTerra RP18 column ([…], 3.9 mm × 100 mm) from the manufacturer Waters (Milford, MA, USA) and two LC-10AD pumps, an SPD-M10AVP PDA detector, and an SIL-HT autosampler, all from the manufacturer Shimadzu (Kyoto, Japan).

FLT3-ITD [2] = assay: FLT3-ITD degradation, immunoblot in MOLM-13 cells; assay type: cell-based, human; conditions: 50 nM, 24 h
Source text: To verify that MA190 and MA191 trigger the depletion of FLT3-ITD and a breakdown of its downstream signaling in both MV4-11 and MOLM-13 cells, we used immunoblotting. Furthermore, we evaluated if the elimination of FLT3-ITD is inherent to the PROTAC activities of MA190 and MA191, or due to their kinase inhibitor moieties using MA68. […] The loss of FLT3-ITD was linked to a reduction of STAT5 and AKT, their phosphorylation, and the auto-phosphorylation of FLT3-ITD in both AML cell systems (Figure 4f,g).
(§1) Figure 4 Biological and biochemical characterization of the FLT3 PROTACs. (a) MV4-11 cells were incubated for 24 h with 50 nM of the indicated compounds. Immunoblotting was performed for the indicated proteins and their phosphorylation (p-) or cleavage (cl.; indicated by arrows); β-actin was used to ensure equal sample loading. (b) MV4-11 cells were treated with the indicated agents and analyzed for early and late apoptosis by flow cytometry. (c) Same as in (b) but treatment for 72 h. (d) MOLM-13 cells were treated with the indicated agents and analyzed for early and late apoptosis by flow cytometry. […] Immunoblots show the expression of the indicated proteins and their phosphorylation (p-); β-actin was used to ensure equal sample loading. All immunoblots show data from at least two independent repetitions and flow cytometry analyses were conducted thrice independently; * […], ** p < 0.01, *** p < 0.001, **** p < 0.0001.

HEK293 cells = assay: Cytotoxicity in HEK293 cells (Alamar Blue); conditions: 50 µM
FLT3-ITD [3] = assay: KINOMEscan binding assay
Experimental: Binding to FLT3-ITD was determined using the KINOMEscan^TM assay (Eurofins DiscoverX Corporation, San Diego, CA, USA)
(§2) Kinase-tagged T7 phage strains were prepared in an E. coli host derived from the BL21 strain. E. coli were grown to log-phase and infected with T7 phage and incubated with shaking at 32 °C until lysis. The lysates were centrifuged and filtered to remove cell debris. The remaining kinases were produced in HEK-293 cells and subsequently tagged with DNA for qPCR detection. […] The liganded beads were blocked with excess biotin and washed with blocking buffer (SeaBlock (Pierce), 1% BSA, 0.05% Tween 20, 1 mM DTT) to remove unbound ligand and to reduce non-specific binding. […] The compounds were then diluted directly into the assays such that the final concentration of DMSO was 0.9%. All reactions performed in polypropylene 384-well plate. Each was a final volume of 0.02 mL. […] The kinase concentration in the eluates was measured by qPCR.

MOLM-13 cells = assay: Apoptosis by flow cytometry (annexin-V/propidium iodine); assay type: cell-based, human; conditions: 72 h
Experimental: To further assess the biological relevance of these findings, we treated MV4-11 cells with the new PROTACs, included MA49 as control, and analyzed them for early (annexin-V positive) and late apoptosis (annexin-V and propidium iodine positive) by flow cytometry. Cells in late apoptosis are more severely damaged than cells in early apoptosis. […] After 72 h, all degraders evoked equal levels of apoptosis (Figure 4c). We additionally tested these degraders in MOLM-13 cells which carry FLT3-ITD and FLT3 from a patient with AML after initial myelodysplastic syndrome.
as §1

in vitro = conditions: CD-1, mouse, liver microsomes, pH 7.4
[4] = Metabolic stability in liver microsomes; conditions: for degraded after 2 h: mouse liver microsomes; for 20 min - compound remaining % / 30 min - compound remaining % / 120 min - compound remaining % / 10 min - compound remaining % / 60 min - compound remaining %: single runs A and B (Table S3)
MAPK14 = MAPK14 (Homo sapiens, UniProt Q16539); assay: KINOMEscan binding assay; set-up: purchased Eurofins DiscoverX Corporation; host or cells: E. coli BL21-derived (T7 phage) or HEK-293
Sequence of MAPK14 (Q16539 whole entry): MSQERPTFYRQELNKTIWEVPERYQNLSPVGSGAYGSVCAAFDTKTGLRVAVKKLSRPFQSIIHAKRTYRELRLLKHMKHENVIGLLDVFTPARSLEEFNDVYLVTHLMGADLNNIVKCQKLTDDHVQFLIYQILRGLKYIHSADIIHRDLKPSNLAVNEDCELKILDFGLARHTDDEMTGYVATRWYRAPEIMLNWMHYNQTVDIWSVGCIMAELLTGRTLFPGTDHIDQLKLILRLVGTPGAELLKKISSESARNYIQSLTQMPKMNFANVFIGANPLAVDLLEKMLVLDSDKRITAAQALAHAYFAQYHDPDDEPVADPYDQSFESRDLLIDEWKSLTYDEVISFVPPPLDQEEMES
Experimental: as §2

[5] = mouse (CD-1) liver microsomes, 25 μM

Row | Structure (SMILES) | 0 h - % [1] | 6 h- % [1] | 12 h- % [1] | 24 h- % [1] | 48 h- % [1] | 72 h- % [1] | FLT3-ITD degradation (FLT3-ITD [2]) | cytotoxic effects (HEK293 cells) | % FLT3-ITD Binding at 1 µM (FLT3-ITD [3]) | induction of late apoptosis (MOLM-13 cells) | remaining at 0 h, 25 µM (in vitro) | remaining at 10 min, 25 µM (in vitro) | remaining at 20 min, 25 µM (in vitro) | remaining at 0.5 h, 25 µM (in vitro) | remaining at 1 h, 25 µM (in vitro) | remaining at 2 h, 25 µM (in vitro) | 20 min—Compound Remaining % [4, 5] | 30 min—Compound Remaining % [4, 5] | degraded after 2 h [4] | % MAPK- 14 Binding at 1 µM (MAPK14) | further results
1 | CNC(=O)c1cc(Oc2ccc(NC(=O)Nc3cc(C(C)(C)C)on3)cc2)ccn1 [MA68, reference compound] | 100% | 101.0% | 102.4% | 102.1% | 105.7% | 105.2% | but not their underlying kinase inhibitor MA68, eliminate FLT3-ITD | showed cytotoxic effects | – | – | – | – | – | – | – | – | – | – | – | – | –
2 | Cc1ncsc1-c1ccc([C@H](C)NC(=O)[C@@H]2C[C@@H](O)CN2C(=O)[C@@H](NC(=O)[C@H]2CC[C@H](C(=O)N3CCC(CCNC(=O)c4cc(Oc5ccc(NC(=O)Nc6cc(C(C)(C)C)on6)cc5)ccn4)CC3)CC2)C(C)(C)C)cc1 [MA190, 4-(4-(3-(5-(tert-Butyl)isoxazol-3-yl)ureido)phenoxy)-N-(2-(1-(trans-4-(((S)-1-((2S,4R)-4-hydroxy-2-(((S)-1-(4-(4-methylthiazol-5-yl)phenyl)ethyl)carbamoyl)pyrrolidin-1-yl)-3,3-dimethyl-1-oxobutan-2-yl)carbamoyl)cyclohexanecarbonyl)piperidin-4-yl)ethyl)picolinamide] | 100% | 102.6% | 103.2% | 104.4% | 105.4% | 107.4% | eliminate FLT3-ITD | no cytotoxic effects | 71 ± 1% | most potent inducers of late apoptosis | 100% | 92% | 90% | 95% | 96% | 91% | 88.5 ± 1.2% | 93.9 ± 0.6% | 8.0% | 90 ± 2% | 10 min—Compound Remaining % [4, 5]: 91.5 ± 0.4%; 20 min - compound remaining % ([4]; listed as MA190_B): 87%; 30 min - compound remaining % ([4]; listed as MA190_B): 93%; 120 min - compound remaining % ([4]; 120 min, listed as MA190_B): 93%
3 | Cc1ncsc1-c1ccc([C@H](C)NC(=O)[C@@H]2C[C@@H](O)CN2C(=O)[C@@H](NC(=O)[C@H]2CC[C@H](C(=O)N3CCN(CCNC(=O)c4cc(Oc5ccc(NC(=O)Nc6cc(C(C)(C)C)on6)cc5)ccn4)CC3)CC2)C(C)(C)C)cc1 [MA191, 4-(4-(3-(5-(tert-Butyl)isoxazol-3-yl)ureido)phenoxy)-N-(2-(4-(trans-4-(((S)-1-((2S,4R)-4-hydroxy-2-(((S)-1-(4-(4-methylthiazol-5-yl)phenyl)ethyl)carbamoyl)pyrrolidin-1-yl)-3,3-dimethyl-1-oxobutan-2-yl)carbamoyl)cyclohexanecarbonyl)piperazin-1-yl)ethyl)picolinamide] | 100% | 100.3% | 100.0% | 99.7% | 100.3% | 100.3% | eliminate FLT3-ITD | no cytotoxic effects | 88 ± 2% | most potent inducers of late apoptosis | 100% | 99% | 96% | 94% | 93% | 91% | 97.0 ± 1.0% | 95.0 ± 1.2% | 10.8% | 89 ± 2% | 10 min—Compound Remaining % [4, 5]: 98.2 ± 0.9%; 60 min—Compound Remaining % [4, 5]: 91.2 ± 1.8%; 120 min—Compound Remaining % ([4]; mouse (CD-1) liver microsomes, 25 μM, 120 min): 89.2 ± 1.0%; 10 min - compound remaining % ([4]; listed as MA191_B): 97%; 20 min - compound remaining % ([4]; listed as MA191_B): 98%; 60 min - compound remaining % ([4]; listed as MA191_B): 89%; 120 min - compound remaining % ([4]; 120 min, listed as MA191_B): 88%
4 | Cc1ncsc1-c1ccc([C@H](C)NC(=O)[C@@H]2C[C@@H](O)CN2C(=O)[C@@H](NC(=O)CCOCCOCCOCCNC(=O)c2cc(Oc3ccc(NC(=O)Nc4cc(C(C)(C)C)on4)cc3)ccn2)C(C)(C)C)cc1 [MA49, reference compound] | 100% | 101.1% | 101.4% | 103.5% | 104.2% | 104.9% | – | showed cytotoxic effects | 91 ± 2% | most potent inducers of late apoptosis | 100% | 66% | 53% | 37% | 29% | 15% | 52.9 ± 2.1% | 37.2 ± 0.6% | 85.0% | 81 ± 0% | 60 min—Compound Remaining % [4, 5]: 28.8 ± 2.9%; 10 min - compound remaining % ([4]; listed as MA49_B): 71%; 20 min - compound remaining % ([4]; listed as MA49_B): 57%; 30 min - compound remaining % ([4]; listed as MA49_B): 38%; 60 min - compound remaining % ([4]; listed as MA49_B): 35%; 120 min - compound remaining % ([4]; 120 min, listed as MA49_B): 10%
